In ChEMBL document CHEMBL1140600, “Recent advances in proton pump inhibitors and management of acid-peptic disorders” (Bioorg Med Chem, 2007):

Experiments:
[1] = Inhibition of H+/K+ ATPase
[2] = Dissociation constant, pKa of the compound; assay type: physicochemical

IC50 [1] [µM] | SMILES | pKa [2]
7.5 | CCOC(=O)c1cnc(C[S+]([O-])c2nc3ccccc3[nH]2)nc1N(C)C (stereo unspecified) | –
5.8 | COc1ccc2[nH]c([S+]([O-])Cc3ncc(C)c(OC)c3C)nc2c1 (stereo unspecified) [OMEPRAZOLE] | –
– | COc1ccc2nc([S@@+]([O-])Cc3ncc(C)c(OC)c3C)[nH]c2c1 [ESOMEPRAZOLE] | 4
– | Cc1c(OCC(F)(F)F)ccnc1C[S+]([O-])c1nc2ccccc2[nH]1 (stereo unspecified) [LANSOPRAZOLE] | 4
– | COCCCOc1ccnc(C[S+]([O-])c2nc3ccccc3[nH]2)c1C (stereo unspecified) [RABEPRAZOLE] | 5
– | COc1ccnc(C[S+]([O-])c2nc3ccc(OC(F)F)cc3[nH]2)c1OC (stereo unspecified) [PANTOPRAZOLE] | 4
